Laboratory results published in US10066270B2, “Methods and kits used in classifying adrenocortical carcinoma” (THE TRANSLATIONAL GENOMICS RESEARCH INSTITUTE, priority 2010, dated 2018).

Legend:
PTTG1 [1] = assay: PTTG1 expression in SW-13 ACC cell line, relative to beta-actin; assay type: cell-based
From the text: FIG. 6 depicts the effect of vorinostat on the ACC cell line SW-13.

PTTG1 [2] = assay: PTTG1 expression in H259R ACC cell line, relative to beta-actin; assay type: cell-based
From the text: FIG. 7 depicts the effect of vorinostat on the ACC cell line H259R.

adrenocortical carcinoma = conditions: ACC patients; cited from earlier work

Row | SMILES | effect on PTTG1 expression (PTTG1 [1]) | effect on PTTG1 expression (PTTG1 [2]) | patients showing a response (adrenocortical carcinoma) | side effects (adrenocortical carcinoma)
1 | O=C(CCCCCCC(=O)Nc1ccccc1)NO [Vorinostat] | reduces PTTG1 expression | reduces PTTG1 expression |  | 
2 | Clc1ccc(C(c2ccccc2Cl)C(Cl)Cl)cc1 (stereo not shown) [mitotane] |  |  | approximately 22% | severe, dose limiting side effects
